What was measured:
[1] = test system: CD34+ cells isolated from donor non-mobilized peripheral blood (hematopoietic stem cells); assay: Culture of CD34+ cells from non-mobilized peripheral blood with SF1670 or SF1670 and ER50891, flow cytometry (Example 17); type: cell-based, human; conditions: after 7 days in culture, SF1670 250 nM (ER50891 100 nM), compared with Base conditions
Protocol: CD34+ cells were isolated from donor peripheral blood. Whole blood was centrifuged at 1750×g (the speed of centriguation may vary) for 20 minutes. Plasma was drawn off using a pipette or syringe. Concentrated red blood cell (RBC) layer was drawn off with a pipette or syringe. Residual RBCs were lysed using standard RBC lysis protocols. White blood cell (WBC) layer was washed in PBS and spun down several times at 300 g for 7 minutes to remove platelets and some debris. Cells were pelleted and incubated with unlabeled CD64 antibody. Cells then undergo negative depletion using biotinylated CD2, CD3, CD4, CD5, CD8, CD11b, CD14, CD16, CD19, CD20, CD45RA, CD56, CD235 (in some examples CD15, CD25 and other lineage specific antibodies may also be used). Cells which bind these antibodies are depleted using streptavidin beads. The resultant progenitor enriched cell pool were cultured directly (residual mature cells and late progenitors will be killed off over time in culture) or cell pool can undergo a CD34 or CD133 positive selection to further enrich for the desired cells before culturing.
(§1) Isolated CD34+ cells were incubated in an in vitro culture media of Alpha MEM without phenol red, 10% (v/v) heat inactivated fetal bovine serum (FBS). Base Conditions, +SF Conditions, and +SF/+ER conditions further included the components described in Table 2. Each condition tested also included an antibiotic solution that includes penicillin, streptomycin, and amphotericin B to avoid contamination.
(§2) Cultures were incubated at 3% oxygen (controlled by nitrogen) and 5% CO2.
(§3) Small molecule components were added separately and fresh each time the media needs to be refreshed. Cytokines can be stored together. Media renewal should occur at least every few days.
(§4) On the days indicated one-half of the volume of the cell culture was removed for data analysis (flow cytometry using a BD FACS ARIA II). The culture volume was replenished with fresh media according to the conditions tested. The data reported accounts for the dilution factor introduced in this procedure.

[2] = test system: hematopoietic stem cells derived from cord blood; assay: Culture of cord blood with SF1670, flow cytometry (Example 19); type: cell-based, human
Protocol: as §1, with “A frozen cord blood sample was thawed and gradually brought to room temperature. Thawed cord blood was” for “Isolated CD34+ cells were”, “Conditions and” for “Conditions,”, “Conditions” for “Conditions, and +SF/+ER conditions”, “4.” for “2.”
as §2, §3, §4

[3] = test system: CD34+ cells isolated from donor non-mobilized peripheral blood; assay: Titration of SF1670 on CD34+ cells from non-mobilized peripheral blood, flow cytometry (Example 20); type: cell-based, human
Description: CD34+ cells were isolated from donor peripheral blood. Standard ficoll paque layering was used to separate the buffy coat. Cells then undergo negative depletion using biotinylated CD2, CD3, CD4, CD5, CD8, CD1 Ib, CD14, CD16, CD19, CD20, CD45RA, CD56, CD235 (in some examples CD15, CD25 and other lineage specific antibodies may also be used). Cells which bind these antibodies are depleted using streptavidin beads. The depleted cell pool was sorted for CD34+ cells before being placed in cell culture.
as §1, with “(FBS) and” for “(FBS). Base Conditions,”, “conditions. +SF” for “Conditions, and +SF/+ER”, “conditions” for “conditions further”, “5. The culture” for “2. Each condition tested”
as §2, §3, §4

[4] = test system: Primary human CD34+ cells isolated from mobilized peripheral blood; assay: Relative expansive effect (relative cell number), mobilized peripheral blood CD34+ cells in StemSpan SFEM (Example 23); type: cell-based
Protocol: Mobilized peripheral blood was purchased from StemCell Technologies. The blood was mobilized using G-CSF from volunteer donors. Volunteers were administered a maximum of 10 ug/kg/day of granulocyte colony-stimulating factor (G-CSF) for 3-5 days prior to collection. Primary human CD34+ cells were isolated from mobilized peripheral blood leukapheresis samples using positive immunomagnetic separation techniques.
Isolated CD34+ cells were incubated in an in vitro culture media of StemSpan SFEM. When testing the substituted derivatives of 9,10-dihydrophenathrene (+Derivative conditions), two internal controls were used: a positive control (+SF conditions) and a baseline control (i.e, basic conditions (“cytokines only”)). The media components and concentrations used for the compounds tested are described in Table 8, above. The culture also included an antibiotic solution that includes penicillin, streptomycin, and amphotericin B to avoid contamination. Controls were included because the amount of expansion in samples obtained varies from individual to individual.
Cultures were incubated at 3% oxygen (controlled by nitrogen) and 5% CO2. […]
Table 10, below, summarizes the relative expansive effect of Compound 1.013 at the indicated concentration. […] Relative cell number is calculated as described in Example 22.

Compound | number of CD34+ cells ([1]; FIG. 1A) | number of CD133+ cells ([1]; FIG. 1B) | number of CD90+ cells ([1]; FIG. 1C) | total number of CD34+ cells ([2]; +SF conditions (SF1670 500 nM) vs Base conditions, FIG. 3B) | total number of CD133+ cells ([2]; +SF conditions (SF1670 500 nM) vs Base conditions, FIG. 3C) | total number of CD90+ cells ([2]; +SF conditions (SF1670 500 nM) vs Base conditions, FIG. 3D) | total number of CD38− cells ([2]; +SF conditions (SF1670 500 nM) vs Base conditions, FIG. 3E) | fold increase in CD34+ cells from day 2 ([2]; SF1670 500 nM, after 16 days in culture, FIG. 4B) | fold increase in CD133+ cells from day 2 ([2]; SF1670 500 nM, after 16 days in culture, FIG. 4C) | fold increase in CD90+ cells from day 2 ([2]; SF1670 500 nM, after 16 days in culture, FIG. 4D) [fold] | fold increase in CD38− cells from day 2 ([2]; SF1670 500 nM, after 16 days in culture, FIG. 4E) [fold] | expansive effect on the enhancement of hematopoietic stem cells over the control condition (0 nM SF1670) ([3]; SF1670 125 nM, 250 nM and 500 nM, FIG. 5B-5E) | expansion of any cell type (total cells) ([3]; SF1670 1000 nM, FIG. 5A) | expansive effect ([3]; SF1670 1000 nM, days 4 and 7, FIG. 5A-5E) | CD133 effect (relative expansive effect, relative cell number) ([4]; 7 days in culture, 1 μM sample compound, mobilized peripheral blood, StemSpan SFEM) | expansive effect on HSCs in culture ([4]; number of cells per well after 7 days, FIG. 18)
CC(C)(C)C(=O)Nc1ccc2c(c1)C(=O)C(=O)c1ccccc1-2 [SF1670] | increased numbers | increased numbers | increased numbers | increase | increase | increase | increase | greater than 50 fold | greater than 50 fold | ~30 | ~5 | at least some expansive effect | very little expansion | reduced expansive effect | – | –
O=C1C(=O)c2ccc(O)cc2-c2ccccc21 [Compound 1.013, 3-hydroxyphenanthrene-9,10-dione] | – | – | – | – | – | – | – | – | – | – | – | – | – | – | +++ (0.55 ≤ x < 0.9) | positive expansive effect
